Assay results published in BigSolDB 2.1.

O=C(O)c1cccc(C(=O)O)c1
Settings | solubility (mole fraction)
in isopropanol, 278.55 K | 0.00218
in isopropanol, 279.87 K | 0.00226
in isopropanol, 283.25 K | 0.00255
in isopropanol, 288.15 K | 0.00291
in isopropanol, 293.15 K | 0.00325
in isopropanol, 298.15 K | 0.00396
in isopropanol, 303.05 K | 0.00459
in isopropanol, 308.25 K | 0.00535
in isopropanol, 313.15 K | 0.00607
in isopropanol, 318.25 K | 0.00675
in methanol, 278.15 K | 0.00253
in methanol, 283.25 K | 0.00276
in methanol, 288.05 K | 0.00314
in methanol, 293.25 K | 0.00346
in methanol, 298.75 K | 0.00379
in methanol, 302.65 K | 0.00411
in methanol, 307.95 K | 0.00456
in n-butanol, 278.06 K | 0.00187
in n-butanol, 283.11 K | 0.00216
in n-butanol, 288.27 K | 0.00234
in n-butanol, 293.3 K | 0.00265
in n-butanol, 298.06 K | 0.00315
in n-butanol, 303.66 K | 0.00366
in n-butanol, 308.36 K | 0.00386
in n-butanol, 312.66 K | 0.00474
in n-butanol, 317.94 K | 0.0052
in n-hexanol, 298.48 K | 0.00244
in n-hexanol, 302.97 K | 0.0032
in n-hexanol, 308.15 K | 0.00362
in n-hexanol, 312.7 K | 0.00424
in n-hexanol, 317.67 K | 0.00477
in n-hexanol, 320.84 K | 0.00544
in n-pentanol, 303.05 K | 0.00408
in n-pentanol, 308.05 K | 0.00532
in n-pentanol, 313.15 K | 0.00594
in n-pentanol, 318.15 K | 0.00651
in n-pentanol, 323.05 K | 0.0074
in n-propanol, 278.15 K | 0.00169
in n-propanol, 280.84 K | 0.0019
in n-propanol, 283.34 K | 0.0022
in n-propanol, 288.17 K | 0.00249
in n-propanol, 293.15 K | 0.00268
in n-propanol, 298.35 K | 0.0032
in n-propanol, 304.05 K | 0.00377
in n-propanol, 308.25 K | 0.00425
in n-propanol, 313.15 K | 0.00473
in n-propanol, 317.55 K | 0.00528
in sec-butanol, 283.05 K | 0.00145
in sec-butanol, 288.05 K | 0.00172
in sec-butanol, 293.15 K | 0.00209
in sec-butanol, 298.25 K | 0.00235
in sec-butanol, 303.45 K | 0.00263
in sec-butanol, 308.25 K | 0.00311
in sec-butanol, 313.25 K | 0.00346
in sec-butanol, 318.15 K | 0.00391
